# Source: patent publication US20250302948A1, “DR5 Agonist and IAP Antagonist Combination Therapy” (Inhibrx Biosciences, Inc., priority 2022, published 2025)
# How the values were obtained:
# CAL-120 = assay: Cytotoxicity on breast cancer cell lines, assay similar to Example 3 (Example 4); conditions: Homo sapiens
# Procedure: (§4) Two duplicate plates were set up for day 0 reading (T0) and for reading at the end point (T48).
# (§5) To generate a 10× working dilution plate of the small molecules, a 1:100 dilution was performed from the 1000× plate into the appropriate media.
# (§6) Day 2—Compound Treatment. […] The plates were then incubated in a 37° C. humidity-controlled tissue culture incubator (5% CO2).
# (§7) 20 μL culture medium containing 1% DMSO and 50 μL CellTiter-Glo® Reagent was added to each well of the TO plates and the contents mixed, plate was incubated at room temperature for 30 min, and read on an En Vision Multi Label Reader.
# (§8) Day 4—Viability Measurements. 50 μL CellTiter-Glo® Reagent was added to each well of the T48 plates and the contents mixed, plate was incubated at room temperature for 30 min, and read on an EnVision Multi Label Reader. The formula for calculating percent survival is: % survival=(LumTest article−LumMedium control)/(LumNone treated−LumMedium control)×100%. Percent cytotoxicity was calculated by subtracting the % survival from 100.
# SNU-5 = assay: Cytotoxicity on gastric cancer cell lines, assay similar to Example 1 (Example 4); conditions: Homo sapiens
# Procedure: (§9) Day 1-Cell Seeding. Monolayer cultures of each cell line were harvested for compound screening as detailed below. Culture medium was aspirated, and the cells were washed once with PBS. Accutase was added and flasks were incubated at 37° C. until cells became detached. An equal volume of complete medium was added to quench the Accutase, and the cells were then pipetted up and down several times to generate a homogenous single cell suspension. The density and viability of cells was determined by Trypan Blue using a TC20 Automated Cell Counter. Experimental cells were resuspended to a concentration of 0.17×10^6/mL in EMEM/10% FBS/Anti-Anti media (complete EMEM) and seeded in the inner wells of 384-well luminescence plates at 15 μL/well (2,500/well final). Each cell line was plated in duplicate on separate plates. […]
# (§10) Day 4—Viability Measurements. […] Any visible bubbles were removed with 100% ethanol vapor, then luminescence (RLU) was read on the Spectra Max M5e plate reader, using the 384-well opaque plate setting and SoftMaxPro v5.4 software with an integration time of 50 milliseconds. To determine the effect of test articles on cell viability, raw RLU values were exported to Excel and percent survival was calculated as a percentage of vehicle control (0.2% DMSO in EMEM), where the vehicle control is set at 100%.
# NCI-H460 = assay: Cytotoxicity on lung cancer cell lines, assay similar to Example 1 (Example 4); conditions: Homo sapiens
# Procedure: as §9
# (§11) Day 4—Viability Measurements. […] Any visible bubbles were removed with 100% ethanol vapor, then luminescence (RLU) was read on the Spectra Max M5e plate reader, using the 384-well opaque plate setting and SoftMaxPro v5.4 software with an integration time of 50 milliseconds. To determine the effect of test articles on cell viability, raw RLU values were exported to Excel and percent survival was calculated as a percentage of vehicle control (0.2% DMSO in EMEM), where the vehicle control is set at 100%. […]
# A549 = assay: as above; conditions: Homo sapiens
# Procedure: as §9, §11
# OUMS-27 = assay: Cytotoxicity on chondrosarcoma cell lines, assay similar to Example 1 (Example 4)
# Procedure: as §9, §11
# NCI-H23 = assay: Cytotoxicity on lung cancer cell lines, assay similar to Example 1 (Example 4); conditions: Homo sapiens
# Procedure: as §9, §11
# SW1353 = assay: Cytotoxicity on chondrosarcoma cell lines, assay similar to Example 1 (Example 4); conditions: Homo sapiens
# Procedure: as §9, §11
# LS411N = assay: CellTiter-Glo cell viability, 48 h (Example 1); assay type: cell-based; conditions: Homo sapiens, LS-411N
# Source text: (§1) Test Article Preparation for INBRX-109.
# (§2) Day 2—Test and Control Article Addition.
# (§3) Day 4—Viability Measurements. […] Data was graphed in GraphPad Prism 7.
# HT-29 = assay: CellTiter-Glo cell viability, 48 h (Example 1); assay type: cell-based; conditions: Homo sapiens
# Source text: as §1, §2, §3
# SNU-C2B = assay: CellTiter-Glo cell viability, 48 h (Example 1); assay type: cell-based; conditions: Homo sapiens
# Source text: as §1, §2, §3
# AsPC-1 = assay: Cytotoxicity on pancreatic cancer cell lines, assay similar to Example 1 (Example 4); conditions: Homo sapiens, ASPC1
# Procedure: as §9, §10
# BT-549 = assay: Cytotoxicity on breast cancer cell lines, assay similar to Example 3 (Example 4); conditions: Homo sapiens
# Procedure: as §4, §5, §6, §7, §8
# MIA-PaCa-2 = assay: Cytotoxicity on pancreatic cancer cell lines, assay similar to Example 1 (Example 4); conditions: Homo sapiens
# Procedure: as §9, §11
# HCC1806 = assay: Cytotoxicity on breast cancer cell lines, assay similar to Example 3 (Example 4); conditions: Homo sapiens
# Procedure: (§12) Day 1—Cell Seeding. Monolayer cultures of each cancer cell line (see Table 7) were harvested during the logarithmic growth period. The density and viability of cells was determined by Trypan Blue using a Vi cell counter, cells were diluted in the appropriate growth media (see Table 7) and 90 μL cell suspensions were added to 96-well plates for compound screening as detailed below. Two duplicate plates were set up for day 0 reading (T0) and for reading at the end point (T48).
# as §5, §6, §7
# (§13) Day 4—Viability Measurements. 50 μL CellTiter-Glo® Reagent was added to each well of the T48 plates and the contents mixed, plate was incubated at room temperature for 30 min, and read on an EnVision Multi Label Reader. […] Percent cytotoxicity was calculated by subtracting the % survival from 100.
# H-EMC-SS = assay: Cytotoxicity on chondrosarcoma cell lines, assay similar to Example 1 (Example 4)
# Procedure: as §9, §11
# CAL-78 = assay: as above
# Procedure: as §9, §11
# MX = assay: Cytotoxicity on breast cancer cell lines, assay similar to Example 3 (Example 4)
# Procedure: as §4, §5, §6, §7, §8
# SW620 = assay: CellTiter-Glo cell viability, 48 h (Examples 1, 2); assay type: cell-based; conditions: Homo sapiens, SW-620
# Source text: as §1, §2, §3
# BT-20 = assay: Cytotoxicity on breast cancer cell lines, assay similar to Example 3 (Example 4); conditions: Homo sapiens
# Procedure: as §4, §5, §6, §7, §8
# HCC70 = assay: as above; conditions: Homo sapiens
# Procedure: as §12, §5, §6, §7, §13
# NCI-N87 = assay: Cytotoxicity on gastric cancer cell lines, assay similar to Example 1 (Example 4); conditions: Homo sapiens
# Procedure: as §9, §10
# SUM159PT = assay: Cytotoxicity on breast cancer cell lines, assay similar to Example 3 (Example 4); conditions: Homo sapiens, SUM-159-PT
# Procedure: as §12, §5, §6, §7, §13
# HCC2935 = assay: Cytotoxicity on lung cancer cell lines, assay similar to Example 1 (Example 4); conditions: Homo sapiens
# Procedure: as §9, §11
# Panc-1 = assay: Cytotoxicity on pancreatic cancer cell lines, assay similar to Example 1 (Example 4); conditions: Homo sapiens
# Procedure: as §9, §10
# HS 578T = assay: Cytotoxicity on breast cancer cell lines, assay similar to Example 3 (Example 4); conditions: Homo sapiens
# Procedure: (§14) Day 1—Cell Seeding. […] Two duplicate plates were set up for day 0 reading (T0) and for reading at the end point (T48).
# as §5, §6, §7, §8
# HCC1187 = assay: as above; conditions: Homo sapiens
# Procedure: as §12, §5, §6, §7, §13
# SW1990 = assay: Cytotoxicity on pancreatic cancer cell lines, assay similar to Example 1 (Example 4); conditions: Homo sapiens
# Procedure: as §9, §11
# NCI-H2452 = assay: Cytotoxicity on lung cancer cell lines, assay similar to Example 1 (Example 4); conditions: Homo sapiens
# Procedure: as §9, §11
# SNU-1 = assay: Cytotoxicity on gastric cancer cell lines, assay similar to Example 1 (Example 4); conditions: Homo sapiens, SNU1
# Procedure: as §9, §10
# CAL-51 = assay: Cytotoxicity on breast cancer cell lines, assay similar to Example 3 (Example 4); conditions: Homo sapiens
# Procedure: as §14, §5, §6, §7, §8
# HCC1937 = assay: as above; conditions: Homo sapiens
# Procedure: as §4, §5, §6, §7, §8
# HCC1395 = assay: as above; conditions: Homo sapiens
# Procedure: as §14, §5, §6, §7, §8
# DU4475 = assay: as above; conditions: Homo sapiens, DU-4475
# Procedure: as §12, §5, §6, §7, §13
compound,measurement,setting,value
"CC[C@H](NC(=O)[C@H](C)NC)C(=O)N1C[C@@H](O)C[C@H]1Cc1c(-c2[nH]c3cc(F)ccc3c2C[C@@H]2C[C@H](O)CN2C(=O)[C@H](CC)NC(=O)[C@H](C)NC)[nH]c2cc(F)ccc12 [Birinapant, birinapant]",cytotoxicity at 3.16 µM,CAL-120,2.75%
same,cytotoxicity at 2 µM,SNU-5,59.6%
same,cytotoxicity at 2 µM,NCI-H460,6.55%
same,cytotoxicity at 2 µM,A549,11.3%
same,cytotoxicity at 2 µM,OUMS-27,-0.15%
same,cytotoxicity at 2 µM,NCI-H23,9.3%
same,cytotoxicity at 2 µM,SW1353,0.1%
same,cytotoxicity at 5 µM,LS411N,14.3%
same,cytotoxicity at 5 µM,HT-29,20.4%
same,cytotoxicity at 5 µM,SNU-C2B,71.1%
same,cytotoxicity at 2 µM,AsPC-1,9.46%
same,cytotoxicity at 3.16 µM,BT-549,6.85%
same,cytotoxicity at 2 µM,MIA-PaCa-2,9.17%
same,cytotoxicity at 3.16 µM,HCC1806,5.17%
same,cytotoxicity at 2 µM,H-EMC-SS,31.1%
same,cytotoxicity at 2 µM,CAL-78,14%
same,cytotoxicity at 3.16 µM,MX,-7.11%
same,cytotoxicity at 5 µM,SW620,11.7%
same,cytotoxicity at 3.16 µM,BT-20,6.51%
same,cytotoxicity at 3.16 µM,HCC70,34%
same,cytotoxicity at 2 µM,NCI-N87,1.82%
same,cytotoxicity at 3.16 µM,SUM159PT,-1.7%
same,cytotoxicity at 2 µM,HCC2935,13.9%
same,cytotoxicity at 2 µM,Panc-1,11.7%
same,cytotoxicity at 3.16 µM,HS 578T,12.7%
same,cytotoxicity at 3.16 µM,HCC1187,36%
same,cytotoxicity at 2 µM,SW1990,10.4%
same,cytotoxicity at 2 µM,NCI-H2452,6.11%
same,cytotoxicity at 2 µM,SNU-1,7.62%
same,cytotoxicity at 3.16 µM,CAL-51,2.35%
same,cytotoxicity at 3.16 µM,HCC1937,-2.77%
same,cytotoxicity at 3.16 µM,HCC1395,8.93%
same,cytotoxicity at 3.16 µM,DU4475,14.3%
